Measurements published in patent publication US9193673B2, “Derivatives of mesalazine, process of their preparation and their use in the treatment of intestinal inflammatory diseases” (SOFAR SPA, priority 2010, dated 2015).
Values joined by “and” are separate entries in the source; they are usually repeats but may differ in a detail not shown here. Identical values can stand only once. “Also recorded” adds a separate entry of the source.

Tests used:
[1] = Stability of the compound (IV) in storage at 25° C. (60% RH) and at 40° C. (75% RH); assay type: physicochemical; conditions: for Titre % Mean / Titre %: 3 months; for Titre % Mean: mean of samples; for Titre %: single samples
Protocol: The object of such study is the evaluation of the stability of the compound (IV) kept at a temperature equivalent to 25° C. (60% RH) and at 40° C. (75% RH). In particular, such study aims at evaluating the titre of the compound (IV) in the stability test at 25° C. (60% RH) at 3, 6, 9, 12, 18, 24, 36, 48, 60 months and in the stability test accelerated at 40° C. (75% RH) at 3, 6, 9, 12 months.
The compound (IV) is divided into 10 Eppendorfs numbered from 1 to 10, containing about 50 mg of product and stored in a cellar at 25° C. 60% RH.
Other 4 Eppendorfs numbered from 11 to 14, containing about 50 mg of product are introduced into an oven at a temperature equivalent to 40° C. 75% RH.

[2] = Stability in rat plasma (hydrolysis by plasma esterases); assay type: in vitro ADME
Protocol: Such study is conducted with the aim of evaluating possible hydrolysis of the compound (IV) by the plasma esterases. The percentage of hydrolysis of the compound (IV) is compared to that of known reference standards.

[3] = Hydrolysis in rat intestine preserved in different conditions; assay type: in vitro ADME
Protocol: Such study is conducted with the aim of surveying the stability of the compound (IV) in rat intestine homogenate preserved in different conditions: frozen at […] and at −80° C.
The stability of the compound (IV) is compared to that of known reference standards.

Compound: CCCC(=O)Oc1ccc(N)cc1C(=O)O.Cl [Compound (IV), 5-amino-2-(butyryloxy)benzoic acid]
- Stability in storage ([1]; 25° C. 60% RH and 40° C. 75% RH): does not seem to be subjected to considerable modifications; also recorded: stable in storage
- Titre % Mean ([1]; 25° C. 60% RH): 98.1%
- Titre % ([1]; 25° C. 60% RH): 98.2% and 98.1%
- Titre % Mean ([1]; 40° C. 75% RH): 101.2%
- Titre % ([1]; 40° C. 75% RH): 99.8% and 102.6%
- Titre ([1]; time t=0): 99.3%
- % Residue at 60 min ([2]; Rat plasma, 60 min): 8.5 ± 2.0%
- Hydrolysis in plasma ([2]; murine plasma): high hydrolysis percentage
- % hydrolysed ([2]; murine plasma, after 1 hour of incubation): 91.5%
- Metabolism in fresh rat intestine homogenate ([3]; fresh homogenate): metabolised quickly
- Stability in rat intestine (residue %) ([3]; fresh homogenate, 15 min): 0.030 ± 0.015%
- Stability in rat intestine (residue %) ([3]; fresh homogenate, 30 min): 0.031 ± 0.004%
- Stability in rat intestine (residue %) ([3]; fresh homogenate, 60 min): 0.047 ± 0.021%
- Stability in rat intestine (residue %) ([3]; homogenate 4° C., 15 min): 0.046 ± 0.004%
- Stability in rat intestine (residue %) ([3]; homogenate 4° C., 30 min): 0.046 ± 0.022%
- Stability in rat intestine (residue %) ([3]; homogenate 4° C., 60 min): 0.064 ± 0.008%
- Stability in rat intestine (residue %) ([3]; homogenate −80° C., 15 min): 0.024 ± 0.007%
- Stability in rat intestine (residue %) ([3]; homogenate −80° C., 30 min): 0.034 ± 0.001%
- Stability in rat intestine (residue %) ([3]; homogenate −80° C., 60 min): 0.470 ± 0.012%
- Stability in rat intestine (residue %) ([3]; intestine −80° C., 15 min): 0.145 ± 0.029%
- Stability in rat intestine (residue %) ([3]; intestine −80° C., 30 min): 0.091 ± 0.038%
- Stability in rat intestine (residue %) ([3]; intestine −80° C., 60 min): 0.098 ± 0.002%
